The nature of the assay: Acetate and glycerol tracer infusion study with ingestion of lactulose or saline in obese, insulin resistant subjects. Format: in vivo, human. As to the method: Eight obese and insulin resistant subjects received a primed constant intravenous infusion of [1-^13C]acetate at the rate of 0.50 μmol·kg^−1·min^−1 and of [1,1,2,3,3-^2H5]glycerol at the rate of 0.11 μmol·kg^−1·min^−1 for 9 hours. After 3 hours of tracer infusion, patients ingested 30 g of pure lactulose, or saline solution. Arterialized blood samples were collected regularly.

`OC[C@H]1O[C@@H](O[C@@H]2[C@@H](CO)OC(O)(CO)[C@H]2O)[C@H](O)[C@@H](O)[C@H]1O` (mixture of isomers) [lactulose]: the “plasma acetate concentration, maximum” value (after ingestion of 30 g lactulose, then decreased to baseline) is reported as “≈ 400 μmol/L”. Further, for the setting “after ingestion of 30 g lactulose, to 120 min, thereafter increased slowly”, the FFA concentrations result was “decreased significantly”. Also, under “after ingestion of 30 g pure lactulose, eight obese insulin resistant subjects, saline 10.3±2.2, P<0.0001”, the acetate turnover rate is 15.5 ± 2.2 µmol/kg/min. The compound also returned a glycerol turnover (after ingestion of 30 g pure lactulose, saline 3.5±0.3, P≦0.05) of 2.8 ± 0.4 µmol/kg/min.

Source of the values: patent US20060148754A1, “Composition for treating and/or preventing dysfunctions associated with type 2 diabetes mellitus and insulin resistance” (priority 2003, published 2006).
